Results on 26 compounds are retold here after patent publication US20250248998A1, “LRRK2 Inhibitors” (Brenig Therapeutics, Inc., priority 2022, published 2025).

The structures appear in SMILES notation.

One may read the IC50 as the concentration that inhibits the measured activity by half. A higher IC50 goes with a need for much substance.

In experiment [1] the target is LRRK2 WT (Homo sapiens, UniProt Q5S007). Kind of experiment: Cell-based NanoBRET target engagement assay in HEK293 cells transfected with LRRK2 WT-NanoLuc fusion vector. Also noted: expressed in transfected cells; host or cells: HEK293 (ATCC). Particulars: compound treatment 1 h. As for the experimental part:
(§1) Example C. Cell-Based NanoBRET Target Engagement Assay in 11EK293 Cells Transiently Transfected with LRRK2 WT- or LRRK2 (G2019S)-Nano Luc Fusion Vector
(§2) H1EK293 (ATCC) cells were transfected with […] LRRK2 WT or LRRK2 (G2019S) and 9 μg transfection carrier DNA. The transfected cells were treated with the compounds (starting at 1 μM, 10-dose with 3-fold dilution) and reference compounds CEP-701 or Staurosporine (starting at 1 μM, 10-dose with 3-fold dilution); compound treatment time: 1 h. LRRK2 WT and LRRK2 (G2019S) target engagement was measured by NanoBRET assay. Curve fits were performed only when % NanoBret signal at the highest concentration of compounds was less than […]. Assay format: 384-well format, 4000 cells/well. The IC50 values are shown in Table C, wherein “A” corresponds to IC50≤50.0 nM, “B” corresponds to 50.0 nM≤IC50<100.0 nM, “C” corresponds to 100.0 nM≤IC50.
On the technique in general: Bioluminescence resonance energy transfer reports proximity on the nanometre scale.

The target in experiment [2] is LRRK2[G2019S] (Homo sapiens, UniProt Q5S007, G2019S). Nature of the experiment: Cell-based NanoBRET target engagement assay in HEK293 cells transfected with LRRK2 (G2019S)-NanoLuc fusion vector. Also noted: expressed in transfected cells; host or cells: HEK293 (ATCC). Particulars: compound treatment 1 h. As for the experimental part: as §1, §2
Chain of LRRK2[G2019S] (Q5S007 whole entry G2019S, the tested form may be a part): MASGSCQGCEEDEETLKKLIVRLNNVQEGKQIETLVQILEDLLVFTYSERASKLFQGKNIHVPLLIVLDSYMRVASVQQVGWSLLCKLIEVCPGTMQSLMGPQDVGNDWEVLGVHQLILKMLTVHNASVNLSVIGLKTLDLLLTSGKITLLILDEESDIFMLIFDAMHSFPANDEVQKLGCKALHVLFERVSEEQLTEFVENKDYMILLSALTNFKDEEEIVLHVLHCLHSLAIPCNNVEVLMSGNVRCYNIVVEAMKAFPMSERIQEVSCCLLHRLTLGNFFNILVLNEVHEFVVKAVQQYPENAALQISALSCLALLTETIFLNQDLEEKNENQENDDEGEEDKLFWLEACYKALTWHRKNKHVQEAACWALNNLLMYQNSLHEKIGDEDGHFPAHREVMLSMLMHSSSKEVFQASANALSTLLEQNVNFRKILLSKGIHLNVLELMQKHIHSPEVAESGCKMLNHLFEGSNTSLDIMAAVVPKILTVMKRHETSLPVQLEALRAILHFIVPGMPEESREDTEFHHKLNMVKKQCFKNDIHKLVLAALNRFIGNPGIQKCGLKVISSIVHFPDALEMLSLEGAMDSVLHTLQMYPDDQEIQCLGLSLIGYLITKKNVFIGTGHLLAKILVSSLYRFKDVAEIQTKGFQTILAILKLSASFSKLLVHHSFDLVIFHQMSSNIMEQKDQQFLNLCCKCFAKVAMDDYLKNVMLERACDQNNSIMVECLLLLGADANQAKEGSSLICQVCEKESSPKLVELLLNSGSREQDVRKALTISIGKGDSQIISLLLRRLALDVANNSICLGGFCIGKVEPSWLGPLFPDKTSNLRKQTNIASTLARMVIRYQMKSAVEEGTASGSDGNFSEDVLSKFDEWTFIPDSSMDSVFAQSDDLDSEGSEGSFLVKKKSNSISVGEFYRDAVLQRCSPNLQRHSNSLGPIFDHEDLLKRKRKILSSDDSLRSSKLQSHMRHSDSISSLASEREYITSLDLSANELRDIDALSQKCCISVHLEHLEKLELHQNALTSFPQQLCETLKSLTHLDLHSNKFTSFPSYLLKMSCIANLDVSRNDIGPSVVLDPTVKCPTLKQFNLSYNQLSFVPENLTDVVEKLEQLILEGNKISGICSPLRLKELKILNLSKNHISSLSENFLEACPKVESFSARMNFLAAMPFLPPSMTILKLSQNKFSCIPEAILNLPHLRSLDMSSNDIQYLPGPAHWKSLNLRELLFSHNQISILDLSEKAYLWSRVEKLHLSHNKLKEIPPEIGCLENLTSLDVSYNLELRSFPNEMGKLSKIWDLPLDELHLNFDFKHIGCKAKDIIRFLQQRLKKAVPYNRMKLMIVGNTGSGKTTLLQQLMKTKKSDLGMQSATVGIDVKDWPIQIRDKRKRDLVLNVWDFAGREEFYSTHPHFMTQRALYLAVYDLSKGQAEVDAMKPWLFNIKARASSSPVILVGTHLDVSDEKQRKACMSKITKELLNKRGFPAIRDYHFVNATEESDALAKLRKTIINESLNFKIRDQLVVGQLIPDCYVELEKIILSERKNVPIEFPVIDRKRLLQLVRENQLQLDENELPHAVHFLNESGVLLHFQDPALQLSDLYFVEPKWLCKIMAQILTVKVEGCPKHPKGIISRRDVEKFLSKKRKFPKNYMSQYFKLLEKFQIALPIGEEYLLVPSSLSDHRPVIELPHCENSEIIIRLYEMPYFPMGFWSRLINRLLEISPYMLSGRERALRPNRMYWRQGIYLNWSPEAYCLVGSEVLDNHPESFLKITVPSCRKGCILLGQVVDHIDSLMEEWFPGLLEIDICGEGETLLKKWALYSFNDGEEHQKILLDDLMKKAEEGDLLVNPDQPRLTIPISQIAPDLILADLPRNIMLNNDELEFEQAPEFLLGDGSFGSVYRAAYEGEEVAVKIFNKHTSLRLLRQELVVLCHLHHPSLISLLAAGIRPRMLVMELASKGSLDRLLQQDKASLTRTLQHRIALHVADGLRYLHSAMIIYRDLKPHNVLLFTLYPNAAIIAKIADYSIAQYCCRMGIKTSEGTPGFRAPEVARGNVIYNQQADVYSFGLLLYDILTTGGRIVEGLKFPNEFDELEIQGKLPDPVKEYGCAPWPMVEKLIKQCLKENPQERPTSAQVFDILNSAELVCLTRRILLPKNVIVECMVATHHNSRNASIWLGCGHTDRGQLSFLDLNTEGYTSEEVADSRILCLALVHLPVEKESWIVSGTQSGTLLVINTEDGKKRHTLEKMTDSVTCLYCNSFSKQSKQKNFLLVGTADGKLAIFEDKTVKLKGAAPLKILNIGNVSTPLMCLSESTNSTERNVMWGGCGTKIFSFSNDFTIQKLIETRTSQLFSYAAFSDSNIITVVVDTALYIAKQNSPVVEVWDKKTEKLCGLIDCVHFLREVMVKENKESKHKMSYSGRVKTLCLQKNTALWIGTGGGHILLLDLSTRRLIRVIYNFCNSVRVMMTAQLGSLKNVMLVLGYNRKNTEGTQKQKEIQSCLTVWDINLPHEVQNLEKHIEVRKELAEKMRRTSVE

Chain of LRRK2 WT (Q5S007 whole entry, the tested form may be a part): as the sequence (Q5S007 whole entry G2019S, the tested form may be a part) above, with S2019G counted along it

Regarding `Cn1nc(-c2n[nH]c3ccc(OC4(C)CC4)cc23)cc(N2CCNC(C(F)(F)F)CC2)c1=O` (stereo not shown) [Compound 74, 2-methyl-6-[5-(1-methylcyclopropoxy)-1H-indazol-3-yl]-4-[5-(trifluoromethyl)-1,4-diazepan-1-yl]pyridazin-3-one], the IC50 in experiment [1] and in experiment [2] was no more than 50 nM throughout.

On to `Cn1nc(-c2n[nH]c3ccc(OC4(C)CC4)cc23)cc(N2CCCOCC2)c1=O` [Compound 76, 2-methyl-6-[5-(1-methylcyclopropoxy)-1H-indazol-3-yl]-4-(1,4-oxazepan-4-yl)pyridazin-3-one], for which the IC50 in experiment [1] and in experiment [2] was no more than 50 nM each time.

Regarding `Cn1nc(-c2n[nH]c3ccc(OC4(C)CC4)cc23)cc(N2CC(O)C(C)(C)C2)c1=O` (stereo not shown) [Compound 62, 4-(4-hydroxy-3,3-dimethyl-pyrrolidin-1-yl)-2-methyl-6-[5-(1-methylcyclopropoxy)-1H-indazol-3-yl]pyridazin-3-one], the 50% inhibitory concentration (IC50) in experiment [1] and in experiment [2] was no more than 50 nM throughout.

`Cn1nc(-c2n[nH]c3ccc(OC4(C)CC4)cc23)cc(N2CC(F)C(C)(C)C2)c1=O` (stereo not shown) [Compound 55, 4-(4-fluoro-3,3-dimethyl-pyrrolidin-1-yl)-2-methyl-6-[5-(1-methylcyclopropoxy)-1H-indazol-3-yl]pyridazin-3-one]: the IC50 in experiment [1] and in experiment [2] was no more than 50 nM throughout.

`Cn1nc(-c2n[nH]c3ccc(OC4(C)CC4)cc23)cc(N2CCOC(CO)CC2)c1=O` (stereo not shown) [Compound 92, 4-[7-(hydroxymethyl)-1,4-oxazepan-4-yl]-2-methyl-6-[5-(1-methylcyclopropoxy)-1H-indazol-3-yl]pyridazin-3-one]: the IC50 in experiment [1] and in experiment [2] was no more than 50 nM in each case.

For the compound `Cn1nc(-c2n[nH]c3ccc(OC4(C)CC4)cc23)cc(N2CCCC(C)(O)CC2)c1=O` (stereo not shown) [Compound 79, 4-(4-hydroxy-4-methyl-azepan-1-yl)-2-methyl-6-[5-(1-methylcyclopropoxy)-1H-indazol-3-yl]pyridazin-3-one], the half-maximal inhibitory concentration (IC50) in experiment [1] and in experiment [2] was no more than 50 nM throughout.

Regarding `Cn1nc(-c2n[nH]c3ccc(OC4(C)CC4)cc23)cc(N2CCOCC(C)(O)C2)c1=O` (stereo not shown) [Compound 90, 4-(6-hydroxy-6-methyl-1,4-oxazepan-4-yl)-2-methyl-6-[5-(1-methylcyclopropoxy)-1H-indazol-3-yl]pyridazin-3-one], the IC50 in experiment [1] and in experiment [2] was no more than 50 nM in each case.

In the case of `Cn1nc(-c2n[nH]c3ccc(OC4(C)CC4)cc23)cc(N2CCCN(CC(C)(C)O)CC2)c1=O` [Compound 84, 4-[4-(2-hydroxy-2-methyl-propyl)-1,4-diazepan-1-yl]-2-methyl-6-[5-(1-methylcyclopropoxy)-1H-indazol-3-yl]pyridazin-3-one], the IC50 in experiment [1] and in experiment [2] was no more than 50 nM throughout.

On to `Cn1nc(-c2n[nH]c3ccc(OC4(C)CC4)cc23)cc(N2CC(F)C3(CC3)C2)c1=O` (stereo not shown) [Compound 57, 4-(7-fluoro-5-azaspiro[2.4]heptan-5-yl)-2-methyl-6-[5-(1-methylcyclopropoxy)-1H-indazol-3-yl]pyridazin-3-one], for which the IC50 in experiment [1] and in experiment [2] was no more than 50 nM in each case.

With `Cn1nc(-c2n[nH]c3ccc(OC4(C)CC4)cc23)cc(N2CCC(C(C)(C)O)C2)c1=O` (stereo not shown) [Compound 85, 4-[3-(1-hydroxy-1-methyl-ethyl)pyrrolidin-1-yl]-2-methyl-6-[5-(1-methylcyclopropoxy)-1H-indazol-3-yl]pyridazin-3-one], the concentration for half-maximal inhibition (IC50) in experiment [1] and in experiment [2] was no more than 50 nM in each case.

As to `CC1CCN(c2cc(-c3n[nH]c4ccc(OC5(C)CC5)cc34)nn(C)c2=O)CC(C)O1` (stereo not shown) [Compound 70, 4-(2,7-dimethyl-1,4-oxazepan-4-yl)-2-methyl-6-[5-(1-methylcyclopropoxy)-1H-indazol-3-yl]pyridazin-3-one], the IC50 in experiment [1] and in experiment [2] was no more than 50 nM each time.

For the compound `Cn1nc(-c2n[nH]c3ccc(OC4(C)CC4)cc23)cc(N2CCCNC(C)(C)C2)c1=O` [Compound 67, 4-(3,3-dimethyl-1,4-diazepan-1-yl)-2-methyl-6-[5-(1-methylcyclopropoxy)-1H-indazol-3-yl]pyridazin-3-one], the half-inhibitory concentration (IC50) in experiment [1] and in experiment [2] was no less than 100 nM in each case.

For the compound `CN1CCCN(c2cc(-c3n[nH]c4ccc(OC5(C)CC5)cc34)nn(C)c2=O)CC1` [Compound 63, 2-methyl-6-[5-(1-methylcyclopropoxy)-1H-indazol-3-yl]-4-(4-methyl-1,4-diazepan-1-yl)pyridazin-3-one], the IC50 in experiment [1] and in experiment [2] was no more than 50 nM throughout.

Consider `CN1CCN(c2cc(-c3n[nH]c4ccc(OC5(C)CC5)cc34)nn(C)c2=O)CCC1C(F)(F)F` (stereo not shown) [Compound 65, 2-methyl-6-[5-(1-methylcyclopropoxy)-1H-indazol-3-yl]-4-[4-methyl-5-(trifluoromethyl)-1,4-diazepan-1-yl]pyridazin-3-one], for which the IC50 in experiment [1] and in experiment [2] was no more than 50 nM each time.

With `Cn1nc(-c2n[nH]c3ccc(OC4(C)CC4)cc23)cc(N2CCCCC(C)(O)C2)c1=O` (stereo not shown) [Compound 81, 4-(3-hydroxy-3-methyl-azepan-1-yl)-2-methyl-6-[5-(1-methylcyclopropoxy)-1H-indazol-3-yl]pyridazin-3-one], the half-maximal inhibitory concentration (IC50) in experiment [1] and in experiment [2] was no more than 50 nM in each case.

On to `CC1(Oc2ccc3[nH]nc(-c4cc(N5CC(F)C(C)(C)C5)c(=O)n(C5CC5)n4)c3c2)CC1` (stereo not shown) [Compound 61, 2-cyclopropyl-4-(4-fluoro-3,3-dimethyl-pyrrolidin-1-yl)-6-[5-(1-methylcyclopropoxy)-1H-indazol-3-yl]pyridazin-3-one], for which the IC50 in experiment [1] and in experiment [2] was no more than 50 nM in each case.

In the case of `CC(C)N1CCCN(c2cc(-c3n[nH]c4ccc(OC5(C)CC5)cc34)nn(C)c2=O)CC1` [Compound 96, 4-(4-isopropyl-1,4-diazepan-1-yl)-2-methyl-6-[5-(1-methylcyclopropoxy)-1H-indazol-3-yl]pyridazin-3-one], the concentration for half-maximal inhibition (IC50) in experiment [1] and in experiment [2] was no more than 50 nM each time.

As for `Cn1nc(-c2n[nH]c3ccc(OC4(C)CC4)cc23)cc(N2CCCCC(CO)C2)c1=O` (stereo not shown) [Compound 75, 4-[3-(hydroxymethyl)azepan-1-yl]-2-methyl-6-[5-(1-methylcyclopropoxy)-1H-indazol-3-yl]pyridazin-3-one], the IC50 in experiment [1] and in experiment [2] was no more than 50 nM in each case.

Take `CC1(Oc2ccc3[nH]nc(-c4cc(N5CC(C)(C)C6COCC65)c(=O)n(C5CC5)n4)c3c2)CC1` (stereo not shown) [Compound 49, 2-cyclopropyl-4-(3,3-dimethyl-3a,4,6,6a-tetrahydro-2H-furo[3,4-b]pyrrol-1-yl)-6-[5-(1-methylcyclopropoxy)-1H-indazol-3-yl]pyridazin-3-one]: the half-inhibitory concentration (IC50) in experiment [1] and in experiment [2] was no more than 50 nM throughout.

With `Cn1nc(-c2n[nH]c3ccc(OC4(C)CC4)cc23)cc(N2CCNCC(C)(O)C2)c1=O` (stereo not shown) [Compound 93, 4-(6-hydroxy-6-methyl-1,4-diazepan-1-yl)-2-methyl-6-[5-(1-methylcyclopropoxy)-1H-indazol-3-yl]pyridazin-3-one], the IC50 in experiment [1] and in experiment [2] was no less than 100 nM throughout.

In the case of `Cn1nc(-c2n[nH]c3ccc(OC4(C)CC4)cc23)cc(N2CCCOC(C)(C)C2)c1=O` [Compound 73, 4-(2,2-dimethyl-1,4-oxazepan-4-yl)-2-methyl-6-[5-(1-methylcyclopropoxy)-1H-indazol-3-yl]pyridazin-3-one], the half-inhibitory concentration (IC50) in experiment [1] is 50 to 100 nM; in experiment [2] it was no more than 50 nM.

For `Cn1nc(-c2n[nH]c3ccc(OC4(C)CC4)cc23)cc(N2CCC(C)(C)NC(C)(C)C2)c1=O` [Compound 68, 2-methyl-6-[5-(1-methylcyclopropoxy)-1H-indazol-3-yl]-4-(3,3,5,5-tetramethyl-1,4-diazepan-1-yl)pyridazin-3-one], the half-inhibitory concentration (IC50) in experiment [1] and in experiment [2] was no less than 100 nM throughout.

`CC1(Oc2ccc3[nH]nc(-c4cc(N5CCOCC6(CC6)C5)c(=O)n(C5CC5)n4)c3c2)CC1` [Compound 53, 2-cyclopropyl-6-[5-(1-methylcyclopropoxy)-1H-indazol-3-yl]-4-(5-oxa-8-azaspiro[2.6]nonan-8-yl)pyridazin-3-one]: the half-inhibitory concentration (IC50) in experiment [1] and in experiment [2] was no more than 50 nM throughout.

Consider `CN1CCN(c2cc(-c3n[nH]c4ccc(OC5(C)CC5)cc34)nn(C)c2=O)CC(F)(F)C1` [Compound 64, 4-(6,6-difluoro-4-methyl-1,4-diazepan-1-yl)-2-methyl-6-[5-(1-methylcyclopropoxy)-1H-indazol-3-yl]pyridazin-3-one], for which the IC50 in experiment [1] was 50 to 100 nM; in experiment [2], no more than 50 nM.

As to `CC1CCN(c2cc(-c3n[nH]c4ccc(OC5(C)CC5)cc34)nn(C)c2=O)CCC1O` (stereo not shown) [Compound 78, 4-(4-hydroxy-5-methyl-azepan-1-yl)-2-methyl-6-[5-(1-methylcyclopropoxy)-1H-indazol-3-yl]pyridazin-3-one], the IC50 in experiment [1] and in experiment [2] was no more than 50 nM throughout.

Take `CC1(Oc2ccc3[nH]nc(-c4cc(N5CC(F)C6(CC6)C5)c(=O)n(C5CC5)n4)c3c2)CC1` (stereo not shown) [Compound 59, 2-cyclopropyl-4-(7-fluoro-5-azaspiro[2.4]heptan-5-yl)-6-[5-(1-methylcyclopropoxy)-1H-indazol-3-yl]pyridazin-3-one]: the IC50 in experiment [1] and in experiment [2] was no more than 50 nM each time.
